# Laboratory results published in US11464770B2, “Anticancer pharmaceutical composition” (NATIONAL CANCER CENTER, priority 2016, dated 2022).
# Read-outs that look alike come from different tables or passages of the source.
# Assays:
# [1] = tested on: colorectal cancer cell lines (e.g. DLD-1, HCT 116, SW620, HCT-15, HCT-8, RKO); test: Cell based assay, cell viability (CellTiter-Glo), colorectal cancer cell lines
# Procedure: (§1) Commercially available bladder cancer, prostate cancer, lung cancer, breast cancer, blood cancer, pancreatic cancer, colorectal cancer, brain cancer, neuroblastoma, melanoma, liver cancer, cervical carcinoma, ovarian cancer, renal cancer, and papilloma cell lines were each treated with trypsin-EDTA and cultured, followed by being seeded in each well of a 96 well plate. After 24 hours of treatment at constant temperature, the respective cells were treated with the candidate compound so that a final concentration became 0 to 2 μM. The treated cells were additionally cultured for 72 hours, and cell viability was measured by using an ATP detection method (CellTiter-Glo® Luminescent Cell Viability Assay, Promega).
# melanoma cell lines = test: Cell based assay, cell viability (CellTiter-Glo), melanoma cell lines; details: Homo sapiens; LOX-IMVI cell line
# Procedure: as §1
# [2] = tested on: ovarian cancer cell lines; test: Cell based assay, cell viability (CellTiter-Glo), ovarian cancer cell lines; details: Homo sapiens; OVCAR-3 cells
# Procedure: as §1
# [3] = Homo sapiens, DLD-1, 72 hours treatment, read-out: IC50, colorectal cancer cell line DLD-1
# [4] = Homo sapiens, HCT 116, 72 hours treatment, read-out: IC50, colorectal cancer cell line HCT 116
# [5] = Homo sapiens, HCT-8, 72 hours treatment, read-out: IC50, colorectal cancer cell line HCT-8
# [6] = Homo sapiens, HCT-15, 72 hours treatment, read-out: IC50, colorectal cancer cell line HCT-15
# [7] = Homo sapiens, HT-29, 72 hours treatment, read-out: IC50, colorectal cancer cell line HT-29
# [8] = Homo sapiens, LoVo, 72 hours treatment, read-out: IC50, colorectal cancer cell line LoVo
# [9] = Homo sapiens, SW480, 72 hours treatment, read-out: IC50, colorectal cancer cell line SW480
# [10] = Homo sapiens, SW-620, SW620, 72 hours treatment, read-out: IC50, colorectal cancer cell line SW620
# [11] = RKO, 72 hours treatment, read-out: IC50, colorectal cancer cell line RKO
Compound,"IC50 [1, 3] [nM]","IC50 [1, 4] [nM]","IC50 [1, 5] [nM]","IC50 [1, 6] [nM]","IC50 [1, 7] [nM]","IC50 [1, 8] [nM]","IC50 [1, 9] [nM]","IC50 [1, 10] [nM]","IC50 [1, 11] [nM]",IC50 (melanoma cell lines) [nM],IC50 [2] [nM]
"CC(=O)c1c([S+](C)[O-])[nH]c2c(Br)ccc(Cl)c2c1=O (centres unmarked) [Compound 1, 3-acetyl-8-bromo-5-chloro-2-(methylsulfinyl)quinolin-4(1H)-one]",810,1670,> 2000,> 2000,> 10000,> 2000,> 2000,> 2000,> 2000,1500,700
"CSc1[nH]c2c(Br)ccc(Cl)c2c(=O)c1C(C)=O [Compound 2, 3-acetyl-8-bromo-5-chloro-2-(methylthio)quinolin-4(1H)-one]",> 2000,> 2000,> 2000,> 2000,> 10000,> 2000,> 2000,> 2000,> 2000,> 2000,> 2000
"CC(=O)c1c(SCc2ccccc2)[nH]c2c(Br)ccc(Cl)c2c1=O [Compound 3, 3-acetyl-2-(benzylthio)-8-bromo-5-chloroquinolin-4(1H)-one]",> 2000,> 2000,> 2000,> 2000,> 10000,> 2000,> 2000,> 2000,> 2000,> 2000,> 2000
CC(=O)c1c([S+]([O-])Cc2ccccc2)nc2c(Br)ccc(Cl)c2c1O (centres unmarked) [Compound 4],1840,1150,1580,1330,> 10000,1800,> 2000,1330,1550,1090,810
"CSc1c(C(C)=O)c(=O)c2c(Cl)ccc(Br)c2n1C [Compound 5, 3-acetyl-8-bromo-5-chloro-1-methyl-2-(methylthio)quinolin-4(1H)-one]",> 2000,> 2000,> 2000,> 2000,> 10000,> 2000,> 2000,> 2000,> 2000,> 2000,> 2000
"CC(=O)c1c([S+](C)[O-])[nH]c2c(Cl)ccc(Cl)c2c1=O (centres unmarked) [Compound 6, 3-acetyl-5,8-dichloro-2-(methylsulfinyl)quinolin-4(1H)-one]",700,1480,> 2000,1700,> 10000,> 2000,> 2000,1550,1840,1350,730
"CSc1c(C(C)=O)c(=O)c2cc(F)ccc2n1C [Compound 7, 3-acetyl-6-fluoro-1-methyl-2-(methylthio)quinolin-4(1H)-one]",> 2000,> 2000,> 2000,> 2000,> 10000,> 2000,> 2000,> 2000,> 2000,> 2000,> 2000
"CSc1[nH]c2ccc(F)cc2c(=O)c1C(C)=O [Compound 8, 1-(6-fluoro-4-hydroxy-2-(methylthio)quinolin-3-yl)ethan-1-one]",> 2000,> 2000,> 2000,> 2000,> 10000,> 2000,> 2000,> 2000,> 2000,> 2000,> 2000
"CC(=O)c1c([S+](C)[O-])n(C(=O)c2ccc(Br)cc2)c2c(Br)ccc(Cl)c2c1=O (centres unmarked) [Compound 9, 3-acetyl-8-bromo-1-(4-bromobenzoyl)-5-chloro-2-(methylsulfinyl)quinolin-4(1H)-one]",870,1050,1750,1240,> 10000,> 2000,1280,1360,1930,1050,580
"CC(=O)c1c(SCc2ccc(Cl)cc2)[nH]c2c(Br)ccc(Cl)c2c1=O [Compound 10, 3-acetyl-8-bromo-5-chloro-2-((4-chlorobenzyl)thio)quinolin-4(1H)-one]",> 2000,> 2000,> 2000,> 2000,> 10000,> 2000,> 2000,> 2000,> 2000,> 2000,> 2000
"CC(=O)c1c([S+]([O-])Cc2ccc(Cl)cc2)[nH]c2c(Br)ccc(Cl)c2c1=O (centres unmarked) [Compound 11, 3-acetyl-8-bromo-5-chloro-2-((4-chlorobenzyl)sulfinyl)quinolin-4(1H)-one]",820,> 2000,> 2000,> 2000,> 10000,> 2000,> 2000,> 2000,> 2000,> 2000,> 2000
"CC(=O)c1c(Sc2ccccc2)[nH]c2c(Br)ccc(Cl)c2c1=O [Compound 12, 3-acetyl-8-bromo-5-chloro-2-(phenylthio)quinolin-4(1H)-one]",> 2000,> 2000,> 2000,> 2000,> 10000,> 2000,> 2000,> 2000,> 2000,> 2000,> 2000
"CC(=O)c1c([S+]([O-])c2ccccc2)[nH]c2c(Br)ccc(Cl)c2c1=O (centres unmarked) [Compound 13, 3-acetyl-8-bromo-5-chloro-2-(phenylsulfinyl)quinolin-4(1H)-one]",> 2000,> 2000,> 2000,> 2000,> 10000,> 2000,> 2000,> 2000,> 2000,> 2000,> 2000
"COc1ccccc1Sc1[nH]c2c(Br)ccc(Cl)c2c(=O)c1C(C)=O [Compound 14, 3-acetyl-8-bromo-5-chloro-2-((2-methoxyphenyl)thio)quinolin-4(1H)-one]",> 2000,> 2000,> 2000,> 2000,> 10000,> 2000,> 2000,> 2000,> 2000,> 2000,> 2000
"COc1ccccc1[S+]([O-])c1[nH]c2c(Br)ccc(Cl)c2c(=O)c1C(C)=O (centres unmarked) [Compound 15, 3-acetyl-8-bromo-5-chloro-2-((2-methoxyphenyl)sulfinyl)quinolin-4(1H)-one]",> 2000,> 2000,> 2000,> 2000,> 10000,> 2000,> 2000,> 2000,> 2000,> 2000,> 2000
"CC(=O)c1c(Sc2ccc(Br)cc2)[nH]c2c(Br)ccc(Cl)c2c1=O [Compound 16, 3-acetyl-8-bromo-2-((4-bromophenyl)thio)-5-chloroquinolin-4(1H)-one]",> 2000,> 2000,> 2000,> 2000,> 10000,> 2000,> 2000,> 2000,> 2000,> 2000,> 2000
"CC(=O)c1c([S+]([O-])c2ccc(Br)cc2)[nH]c2c(Br)ccc(Cl)c2c1=O (centres unmarked) [Compound 17, 3-acetyl-8-bromo-2-((4-bromophenyl)sulfinyl)-5-chloroquinolin-4(1H)-one]",> 2000,> 2000,> 2000,> 2000,> 10000,> 2000,> 2000,> 2000,> 2000,> 2000,> 2000
"CSc1c(C(C)=O)c(=O)c2c(Cl)ccc(Br)c2n1C(C)=O [Compound 18, 1,1′-(8-bromo-5-chloro-2-(methylthio)-4-oxoquinoline-1,3(4H)-diyl)bis(ethan-1-one)]",> 2000,> 2000,> 2000,> 2000,> 10000,> 2000,> 2000,> 2000,> 2000,> 2000,> 2000
"CC(=O)c1c([S+](C)[O-])n(C(C)=O)c2c(Br)ccc(Cl)c2c1=O (centres unmarked) [Compound 19, 1,1′-(8-bromo-5-chloro-2-(methylsulfinyl)-4-oxoquinoline-1,3(4H)-diyl)bis(ethan-1-one)]",> 2000,> 2000,> 2000,> 2000,> 10000,> 2000,> 2000,> 2000,> 2000,> 2000,> 2000
"CC(=O)c1c([S+]([O-])Cc2ccccc2)n(C(=O)c2ccc(Br)cc2)c2c(Br)ccc(Cl)c2c1=O (centres unmarked) [Compound 20, 3-acetyl-2-(benzylsulfinyl)-8-bromo-1-(4-bromobenzoyl)-5-chloroquinolin-4(1H)-one]",> 2000,> 2000,> 2000,> 2000,> 10000,> 2000,> 2000,> 2000,> 2000,> 2000,> 2000
"CC(=O)c1c(S(C)(=O)=O)n(C(=O)c2ccc(Br)cc2)c2c(Br)ccc(Cl)c2c1=O [Compound 21, 3-acetyl-8-bromo-1-(4-bromobenzoyl)-5-chloro-2-(methylsulfonyl)quinolin-4(1H)-one]",> 2000,> 2000,> 2000,> 2000,> 10000,> 2000,> 2000,> 2000,> 2000,> 2000,> 2000
"CC(=O)c1c([S+](C)[O-])n(Cc2ccc(F)c(Cl)c2)c2c(Br)ccc(Cl)c2c1=O (centres unmarked) [Compound 22, 3-acetyl-8-bromo-5-chloro-1-(3-chloro-4-fluorobenzyl)-2-(methylsulfinyl)quinolin-4(1H)-one]",> 2000,> 2000,> 2000,> 2000,> 10000,> 2000,> 2000,> 2000,> 2000,> 2000,> 2000
"CC(=O)c1c(SCc2ccccc2)n(C(=O)c2ccc(Br)cc2)c2c(Br)ccc(Cl)c2c1=O [Compound 23, 3-acetyl-2-(benzylthio)-8-bromo-1-(4-bromobenzoyl)-5-chloroquinolin-4(1H)-one]",> 2000,> 2000,> 2000,> 2000,> 10000,> 2000,> 2000,> 2000,> 2000,> 2000,> 2000
"CC(=O)c1c(SCc2cccc(F)c2)[nH]c2c(Br)ccc(Cl)c2c1=O [Compound 49, 3-acetyl-8-bromo-5-chloro-2-((3-fluorobenzyl)thio)quinolin-4(1H)-one]",> 2000,> 2000,> 2000,> 2000,> 10000,> 2000,> 2000,> 2000,> 2000,–,> 2000
